Measurements published in patent publication US12247022B2, “Combinations for treatment of NASH/NAFLD and related diseases” (Pfizer Inc., priority 2018, dated 2025).
Structures can show the parent of a compound that is named as a salt.

Experiment: Thermodynamic stability of crystalline form versus water activity
Assay type: physicochemical
Conditions: ambient temperature; about 0.2 (20% RH)

| water activity at which the form is thermodynamically stable | Compound |
| --- | --- |
| < 0.2 | COc1cc(C(=O)N2CCC3(CC2)CC(=O)c2c(cnn2C(C)C)C3)cc(-c2ccc(C(=O)O)cc2)n1 [Form 1 of Compound A, 4-(4-(1-isopropyl-7-oxo-1,4,6,7-tetrahydrospiro[indazole-5,4′-piperidine]-1′-carbonyl)-6-methoxypyridin-2-yl)benzoic acid anhydrous tris salt] |
| > 0.2 | COc1cc(C(=O)N2CCC3(CC2)CC(=O)c2c(cnn2C(C)C)C3)cc(-c2ccc(C(=O)O)cc2)n1 [Form 2 of Compound A] |
